In patent US20180185325A1, “12H-BENZO[b]XANTHEN-12-ONES, COMPOSITIONS CONTAINING, AND USES OF, SAME” (Thesan Pharmaceuticals, Inc., priority 2015, published 2018):

Columns and labels:
CYP1A1 [1] = assay: EROD assay in HepG2 cells (cleavage of 7-ethoxyresorufin to resorufin); format: cell-based, human; conditions: human, probe 7-ethoxyresorufin (8 μM)
Protocol: (§1) HepG2 cells are seeded at between 1×10^4 and 2.5×10^4 cells/well in a 96-well microtitre plate. […] The formation of resorufin is quantified by fluorometry with a fluorescence plate reader. Fluorescence is determined at λex 570 nm and λem 590 nm. […] The remaining (i.e. all cells present at the beginning of analysis, since only supernatant is taken to assay EROD) live cells are subsequently utilized for the MIT cytotoxicity assay. […] The medium is carefully removed, then MIT formazan is solubilized by adding 200 μl of DMSO and subsequently mixed on a plate shaker. The absorbance is measured spectrophotometrically at 550 nm and background absorbance at 690 nm is subtracted.

HepG2 cells = assay: MTT cytotoxicity assay in HepG2 cells; format: cell-based, human
Protocol: as §1

human sebocyte cells = assay: MTT cytotoxicity assay in human cultured sebocytes; format: cell-based
Protocol: (§2) Cells are seeded at between 1×10^4 and 2.5×10^4 cells/well in a 96-well microtitre plate. […] The formation of resorufin is quantified by fluorometry with a fluorescence plate reader. Fluorescence is determined at λex 570 nm and […]. The amount of resorufin is calculated from a standard curve generated using 0 to 1 μM resorufin in water at 34 log dilutions. The remaining (i.e. all cells present at the beginning of analysis, since only supernatant is taken to assay EROD) live cells are subsequently utilized for the MIT cytotoxicity assay. MIT is made up in serum-free medium at 5 mg/ml. then added to the cells giving a final concentration of 10% (0.5 mg/ml MIT final) then incubated for 2 h. The medium is carefully removed, then MTT formazan is solubilized by adding 200 μl of DMSO and subsequently mixed on a plate shaker. The absorbance is measured spectrophotometrically at 550 nm and background absorbance at 690 nm is subtracted. A standard curve generated using MTT formazan (dissolved in DMSO) from 0-200 μM (0, 2, 5, 10, 20, 50, 100, 200 μM) is used to calculate the final experimental values which are then expressed as (μmol resorufin/mol MIT formazan) or as fold-induction compared to solvent.

CYP1A1 [2] = assay: EROD assay in human cultured sebocytes; format: cell-based; conditions: cultured sebocytes, probe 7-ethoxyresorufin (8 μM)
Protocol: as §2

CYP1A1 mRNA = CYP1A1 mRNA assay in HepG2 cells (RT-PCR); format: cell-based, human; conditions: 10 uM
Protocol: HepG2 cells (American Type Culture Collection (ATCC), Manassas, Va.) were cultured using Eagle's minimal essential medium (ATCC), supplemented with 10% fetal calf serum (Invitrogen Life Technologies). […] Cells were plated at a seeding density of 3.8×10^5 cells per well on 6-well plates (Corning Costar, NY, U.S.A.). Cells were allowed to attach for 24 h in a 37° C. humidified incubator with a 5% CO2 atmosphere. Media was replaced with that containing test agents or vehicle (0.1% dimethylsulphoxide) and cells incubated for a further 24 h. Following the 24 h incubation with test agents, media was removed and RNA prepared using the Purelink RNA mini kit (ThermoFischer, Carlsbad, Calif.). Nucleic acid concentration was determined using a Nanodrop™ spectrophotometer (ThermoScientific) by measuring the OD at 260 nm and RNA purity was evaluated using the OD 260/280 nm ratio. 1 μg RNA was reverse transcribed using SuperScript®VILO™ (ThermoFischer) with cDNA synthesis performed using the following parameters: 10 min at 25° C., 2 h at 42° C., 5 min at 85° C. (deactivation) followed by a completion temperature of 4° C. […] Each sample (1 μl) was pipetted into a 96-well optical reaction plate (Applied Biosystems, Carlsbad, Calif.). […] Results were analyzed by calculating the fold change of CYP1A1 mRNA levels normalized to 18S rRNA (ΔΔCt) in compound treated cells or tissues compared to vehicle levels.

CYP1A1 enzyme [3] = assay: EROD assay in HepG2 cells (cleavage of 7-ethoxyresorufin to resorufin); format: cell-based, human; conditions: 10 uM, 24 h
Protocol: as §1

CYP1A1 enzyme [4] = assay: EROD assay in human cultured sebocytes; format: cell-based; conditions: 10 uM, 24 h
Protocol: as §2

sebaceous glands = assay: Mouse ear assay for sebaceous gland prevalence; format: in vivo, C57BL/6J mice; conditions: topical 1% solution in DMSO:acetone 50:50, twice a day for five days, vs controls
Protocol: C57BL/6J male mice (Harlan Models), approximately 4-5 weeks of age, body weight 20-30 g, were acclimatized (individually housed) for 5 days in a 12 hour light/dark cycle standard laboratory environment (T=20-24° C., relative humidity 30-70%, 15-20 air changes per hour) with access to water and standard rodent chow (Harlan Tekiad 2014C supplied by Harlan Laboratories Models, S.L.) ad libitum. Animals were anesthetized with isoflurane and the test article (80 ul, 1% solution in DMSO:acetone 50:50) was administered to the outer surface of each of the ears of between 2 and 5 mice twice a day for five days by dermal application using a micropipette tip (a little volume of the solution was also applied on the inner side of the ears). All animals were monitored daily for reaction to the treatment, signs of illness, and behavioral changes. Body weights were recorded before the first administration and immediately prior to sacrifice. Approximately 12 to 16 hours after the final administration on day 5 the mice were sacrificed by i.p. injection of sodium pentobarbital (200 mg/kg) and the ears were collected. Each ear was sectioned into two halves. For each animal, one-half of one ear was fixed, in neutral phosphate-buffered 4% formaldehyde solution (4% formalin). This trimmed section of the ear was then processed, embedded in paraffin wax and stored at room temperature. […]

[5] = molecular target: T1, Aryl Hydrocarbon Receptor (Homo sapiens, UniProt P35869); assay: AhR activation luciferase reporter in Hep G2-plox-XRE TATA-Luc cells; format: cell-based; conditions: 24 h, 1-10 uM
T1 construct: endogenous in cells; host or cells: Hep G2 cells stably transduced with the lentivector plox-XRE TATA-Luc (reporter only)
T1 sequence (P35869 11-848): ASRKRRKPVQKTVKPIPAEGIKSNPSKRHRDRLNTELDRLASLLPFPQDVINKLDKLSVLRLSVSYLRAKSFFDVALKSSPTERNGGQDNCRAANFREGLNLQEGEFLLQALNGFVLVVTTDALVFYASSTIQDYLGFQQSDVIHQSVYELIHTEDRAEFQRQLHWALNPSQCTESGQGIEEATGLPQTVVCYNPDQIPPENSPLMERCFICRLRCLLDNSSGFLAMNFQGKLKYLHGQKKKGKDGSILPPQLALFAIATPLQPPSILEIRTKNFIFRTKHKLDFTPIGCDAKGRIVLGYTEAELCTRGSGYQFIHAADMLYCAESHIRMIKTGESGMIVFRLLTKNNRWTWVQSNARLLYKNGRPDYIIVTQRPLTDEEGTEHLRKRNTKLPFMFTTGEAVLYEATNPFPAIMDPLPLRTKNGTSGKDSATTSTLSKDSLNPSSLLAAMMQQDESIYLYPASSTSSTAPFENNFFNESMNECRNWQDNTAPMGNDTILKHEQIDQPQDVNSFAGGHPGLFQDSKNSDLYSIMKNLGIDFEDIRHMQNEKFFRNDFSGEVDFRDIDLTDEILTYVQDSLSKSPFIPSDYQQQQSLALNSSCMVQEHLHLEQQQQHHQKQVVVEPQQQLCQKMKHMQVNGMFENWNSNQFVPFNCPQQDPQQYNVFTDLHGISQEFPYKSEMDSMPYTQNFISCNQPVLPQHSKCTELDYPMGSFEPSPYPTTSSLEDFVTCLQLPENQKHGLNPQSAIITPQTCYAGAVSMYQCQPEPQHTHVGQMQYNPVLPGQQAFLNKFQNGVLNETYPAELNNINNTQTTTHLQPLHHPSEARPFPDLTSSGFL
Protocol: AhR activation is measured in HEP G2 cells (hepatocytes, Hep G2 is a human liver carcinoma cell line) stably transfected with the lentivector plox-XRE TATA-Luc. The Hep G2 cells are cultured in a growing media consisting of DMEM (Gibco)+10% fetal bovine serum+penicillin+streptomycin. At D0, the Hep G2 cells are seeded into 12-well plates in proportions of approximately 30,000 cells/cm^2. After 24 h, the medium is replaced with fresh medium and the cells are transduced with the lentivector plox-XRE TATA-Luc. After 48 h, the cells are subcultured and maintained in culture, and tested for their reactivity to 3-phenyl-1H-benzo[f]chromen-1-one. The tests are carried out using the luciferase reporter assay system kit from Promega. At D0, the cells are seeded at a density of approximately 60% confluence, and then treated, at D1, with the test substance diluted to various concentrations in the appropriate culture medium. At […], the cells are lysed in CLB buffer, and the lysate is clarified by centrifugation for 5 min at 10 000 g. The luciferase activity is measured in 20 microliters of lysate as recommended by the supplier, using the luminoskan luminometer (Thermo). […] Data is processed and EC50's can be calculated from standard data monitoring software.

[6] = molecular target: T1, Aryl Hydrocarbon Receptor; assay: AhR activation luciferase reporter in NHK-plox-XRE TATA-Luc cells; format: cell-based; conditions: 24 h, 1-10 uM
Protocol: AhR activation is also measured in human skin cells such as normal human keratinocytes (NHK cells) or A431 epidermoid cells stably transfected with the lentivector plox-XRE TATA-Luc. The NHK cells are cultured in a specific keratinocyte SFM medium (Gibco)+penicillin+streptomycin. At D0, the NHK cells are seeded into 6-well plates in a proportion of approximately […]. After 24 h, the medium is replaced with fresh medium and the cells are transduced with the lentivector plox-XRE TATA-Luc. After 48 h, the cells are subcultured and maintained in culture, and tested for their reactivity to 3-phenyl-1H-benzo[f]chromen-1-one. The tests are carried out using the luciferase reporter assay system kit from Promega. At D0, the cells are seeded at a density of approximately 60% confluence, and then treated, at D1, with the test substance diluted to various concentrations in the appropriate culture medium. At D2, the cells are lysed in CLB buffer, and the lysate is clarified by centrifugation for 5 min at 10 000 g. The luciferase activity is measured in 20 microliters of lysate as recommended by the supplier, using the luminoskan luminometer (Thermo). […] Data is processed and EC50's can be calculated from standard data monitoring software.

Row | EC50 at 24 h (CYP1A1 [1]) | EC50 at 24 h (CYP1A1 [2]) | SMILES | Toxicity threshold (HepG2 cells; human, 24 h) | Toxicity threshold (human sebocyte cells) | also measured
1 | 1500 nM | – | O=c1c2ccc(O)cc2oc2ccc3ccccc3c12 [Compound N] | >30 µM | >50 µM | –
2 | 500 nM | 500 nM | COc1ccc2oc3ccc4ccccc4c3c(=O)c2c1 [Compound K] | >100 µM | >50 µM | –
3 | – | – | O=c1cc(-c2ccccc2)oc2ccc3ccccc3c12 [Compound D, 3-Phenyl-1H-benzo[f]chromen-1-one, reference compound] | – | 30 µM | CYP1A1 mRNA fold change from vehicle (CYP1A1 mRNA; 24 h incubation, normalized to 18S rRNA): 596 fold; % change vs. TCDD EROD (HepG2) at 10 uM (CYP1A1 enzyme [3]): 19%; Toxicity threshold (HepG2 cells; HepG2 cells, MTT): >50 µM; % change vs. TCDD EROD (Sebs) at 10 uM (CYP1A1 enzyme [4]): 17%
4 | 2500 nM | 200 nM | O=c1c2ccccc2oc2ccc3ccccc3c12 [Compound C] | >30 µM | >30 µM | induction of CYP1A1 mRNA (in words) (CYP1A1 mRNA): potent inducer; number of differentiated sebocytes (sebaceous glands): a reduction; number of sebaceous glands (sebaceous glands): a clear reduction
5 | 2000 nM | 200 nM | O=c1c2cccc(O)c2oc2ccc3ccccc3c12 [Compound P] | >100 µM | >100 µM | –
6 | 600 nM | 500 nM | O=c1c2cc(O)ccc2oc2ccc3ccccc3c12 [Compound L] | >100 µM | >50 µM | –
7 | – | – | O=c1cc(-c2ccccc2)oc2ccc3ccccc3c12 [3-phenyl-1H-benzo[f]chromen-1-one, 3-Phenyl-1H-benzo[f]chromen-1-one] | – | – | induction of the luciferase activity [5]: a significant induction; induction of luciferase activity [6]: a significant induction
8 | – | – | COc1cccc2c(=O)c3c(ccc4ccccc43)oc12 [Compound O] | >100 µM | >100 µM | –
9 | 3000 nM | – | COc1ccc2c(=O)c3c(ccc4ccccc43)oc2c1 [Compound M] | >30 µM | 50 µM | –
